Laboratory results: publication PMC6979384, “Characterization of the plant homeodomain (PHD) reader family for their histone tail interactions” (Epigenetics & Chromatin, 2020)

What was measured:
Experiment in all cases: Histone peptide microarray
Type in all cases: binding, human
Settings in all cases: sheet "Array Heatmap"; GST-tagged reader; histone peptide array, total n = 4
CHD5 (PCC) = test system: CHD5 (PCC)
Summary of the method: (§1)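 Steps: express and purify GST-tagged PHD reader; incubate 0.5 μM protein on a peptide microarray (293 histone peptides, single or combined PTMs) following an optimized protocol; average signal across 4 replicates.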

RAG2 = test system: RAG2
Summary of the method: as §1

DIDO1 = test system: DIDO1
Summary of the method: as §1

KDM5A (3) = test system: KDM5A (3)
Summary of the method: as §1

KDM5B (1) = test system: KDM5B (1)
Summary of the method: as §1

BAZ2B = test system: BAZ2B
Summary of the method: as §1

DPF2 (PPC2W2) = test system: DPF2 (PPC2W2)
Summary of the method: as §1

ING2 = test system: ING2
Summary of the method: as §1

BPTF (PB) = test system: BPTF (PB)
Summary of the method: as §1

CHD5 (PPCC) = test system: CHD5 (PPCC)
Summary of the method: as §1

MORC3 (CW) = test system: MORC3 (CW)
Summary of the method: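 A peptide microarray holding 293 synthetic histone peptides with individual or combinatorial modifications was probed with each GST-PHD protein at 0.5 μM. Values represent mean intensity (±SD) from four replicates.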

KDM5B (3) = test system: KDM5B (3)
Summary of the method: as §1

AIRE (PP) = test system: AIRE (PP)
Summary of the method: as §1

PHF23 = test system: PHF23
Summary of the method: as §1

ING1 = test system: ING1
Summary of the method: as §1

PHF2 = test system: PHF2
Summary of the method: as §1

TRIM66 (PB) = test system: TRIM66 (PB)
Summary of the method: as §1

MLL5 = test system: MLL5
Summary of the method: as §1

KDM4C (TTP) = test system: KDM4C (TTP)
Summary of the method: as §1

PHRF1 (RP) = test system: PHRF1 (RP)
Summary of the method: as §1

PHF13 = test system: PHF13
Summary of the method: as §1

ING3 = test system: ING3
Summary of the method: as §1

ING4 = test system: ING4
Summary of the method: as §1

PHF21A = test system: PHF21A
Summary of the method: as §1

TAF3 = test system: TAF3
Summary of the method: as §1

ING5 = test system: ING5
Summary of the method: as §1

SP140L = test system: SP140L
Summary of the method: as §1

KDM5A (1) = test system: KDM5A (1)
Summary of the method: as §1

KDM7A = test system: KDM7A
Summary of the method: as §1

PHF8 = test system: PHF8
Summary of the method: as §1

CHD4 (PPCC) = test system: CHD4 (PPCC)
Summary of the method: as §1

Substance: H3K18me2: H3 1-20 [Peptide H3K18me2]
- Array Heatmap signal, CHD5 (PCC) (CHD5 (PCC)): 0.7562
- Array Heatmap signal, RAG2 (RAG2): 0.2403
- Array Heatmap signal, DIDO1 (DIDO1): 0.6131
- Array Heatmap signal, KDM5A (3) (KDM5A (3)): 0.5609
- Array Heatmap signal, KDM5B (1) (KDM5B (1)): 0.731
- Array Heatmap signal, BAZ2B (BAZ2B): 0.4823
- Array Heatmap signal, DPF2 (PPC2W2) (DPF2 (PPC2W2)): 0.713
- Array Heatmap signal, ING2 (ING2): 0.5955
- Array Heatmap signal, BPTF (PB) (BPTF (PB)): 0.334
- Array Heatmap signal, CHD5 (PPCC) (CHD5 (PPCC)): 0.548
- Array Heatmap signal, MORC3 (CW) (MORC3 (CW)): 0.432
- Array Heatmap signal, KDM5B (3) (KDM5B (3)): 0.4828
- Array Heatmap signal, AIRE (PP) (AIRE (PP)): 0.593
- Array Heatmap signal, PHF23 (PHF23): 0.5164
- Array Heatmap signal, ING1 (ING1): 0.5097
- Array Heatmap signal, PHF2 (PHF2): 0.4223
- Array Heatmap signal, TRIM66 (PB) (TRIM66 (PB)): 0.5483
- Array Heatmap signal, MLL5 (MLL5): 0.5113
- Array Heatmap signal, KDM4C (TTP) (KDM4C (TTP)): 0.5076
- Array Heatmap signal, PHRF1 (RP) (PHRF1 (RP)): 0.655
- Array Heatmap signal, PHF13 (PHF13): 0.5815
- Array Heatmap signal, ING3 (ING3): 0.447
- Array Heatmap signal, ING4 (ING4): 0.4353
- Array Heatmap signal, PHF21A (PHF21A): 0.4944
- Array Heatmap signal, TAF3 (TAF3): 0.2642
- Array Heatmap signal, ING5 (ING5): 0.3565
- Array Heatmap signal, SP140L (SP140L): 0.3547
- Array Heatmap signal, KDM5A (1) (KDM5A (1)): 0.4854
- Array Heatmap signal, KDM7A (KDM7A): 0.3495
- Array Heatmap signal, PHF8 (PHF8): 0.3314
- Array Heatmap signal, CHD4 (PPCC) (CHD4 (PPCC)): 0.5307
